# Laboratory results from PubChem BioAssay (NCI).
# “And” between values parts separate entries of the source, which are not always exact repeats. Identical values can stand only once.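 Briefly, cells in 96-well plates were exposed to five compound concentrations for 48 h, and endpoints were estimated by linear interpolation. GI50 marks 50% less growth. TGI denotes the concentration required for complete inhibition of growth.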
# What was measured:
# Assay in all cases: NCI tumour cell line growth inhibition, 48 h
# K-562 leukemia = test system: K-562 leukemia
# LOX IMVI melanoma = test system: LOX IMVI melanoma
# NCI-H23 lung = test system: NCI-H23 lung
# OVCAR-3 ovarian = test system: OVCAR-3 ovarian
# SNB-75 CNS = test system: SNB-75 CNS
# TK-10 renal = test system: TK-10 renal
# U251 CNS = test system: U251 CNS
# HCC-2998 colon = test system: HCC-2998 colon
# OVCAR-4 ovarian = test system: OVCAR-4 ovarian
# T-47D breast = test system: T-47D breast
Compound,GI50 (K-562 leukemia) [µM],TGI (K-562 leukemia) [µM],GI50 (LOX IMVI melanoma) [µM],TGI (LOX IMVI melanoma) [µM],GI50 (NCI-H23 lung) [µM],TGI (NCI-H23 lung) [µM],GI50 (OVCAR-3 ovarian) [µM],TGI (OVCAR-3 ovarian) [µM],GI50 (SNB-75 CNS) [µM],TGI (SNB-75 CNS) [µM],GI50 (TK-10 renal) [µM],TGI (TK-10 renal) [µM],GI50 (U251 CNS) [µM],TGI (U251 CNS),TGI (HCC-2998 colon) [µM],TGI (OVCAR-4 ovarian) [µM],GI50 (OVCAR-4 ovarian) [µM],GI50 (T-47D breast) [µM],TGI (T-47D breast) [µM],GI50 (HCC-2998 colon) [µM]
OCC1OC(N2C=C(c3nc4ccccc4s3)C3C=CC=CC32)C(O)C(O)C1O (stereo unspecified),19,> 50,10.9,26,15.6,> 50,14.9,> 50,18.1,> 50,12.5,32,16.6,> 50 µM,,,,,,
CCOC(=O)C1CC(=O)C=C2CCCCC21 (stereo unspecified),,> 100,,> 100,,> 100,,> 100,,> 100,,> 100,,> 100 µM,> 100,> 100,,,,
CCN1/C(=C/C(C)=C/c2sc3ccc4ccccc4c3[n+]2CC)Sc2ccc3ccccc3c21,1.03,18.4,0.183,0.465,0.108,1.19,0.148,0.317,0.205,0.761,0.217,0.997,0.108,0.336 µM,,1.26,0.138,,,
O=C(O)c1cnc2c(ccc3[nH]cccc32)c1=O,,> 100,,> 100,,> 100,,> 100,,> 100,,> 100,,> 100 µM,> 100,> 100,,,,
O=S(O)O.O=S(O)O.[Co].[NH2-].[NH2-].[NH2-].[NH2-],> 100,> 100,> 100,> 100,> 100,> 100,> 100,> 100,> 100,> 100,> 100,> 100,> 100,> 100 µM,,> 100,> 100,> 100,> 100,
COc1ccc(C)c2sc(N(Cc3cccnc3)C(=O)c3ccc(C#N)cc3)nc12,37.9,> 100,40.8,> 100,43.5,> 100,40.1,> 100,,,58.4,> 100,42.3,> 100 µM,> 100,,,26.1,> 100,46.6
CC[C@]12CN3CCc4c([nH]c5ccccc45)[C@@](C(=O)OC)(c4cc5c(cc4OC)N(C)[C@H]4[C@@](O)(C(=O)OC)[C@H](OC(C)=O)[C@]6(CC)C=CCN7CC[C@]54[C@@H]76)CC(C3)[C@H]1O2 (stereo partly specified),0.0499,> 50,0.145,> 100,0.205,> 68.1,0.0445,,,> 100,0.562,> 100,0.137,34 µM and > 50 µM,,> 100,0.327,,,0.226
COc1ccc(-c2cnc(-c3ccc(OC)cc3)n2-c2cc(OC)c(OC)c(OC)c2)cc1,,,34.5,> 100,28.6,> 100,24.7,65,12.6,30.1,20.5,39.2,24.4,69.2 µM,> 100,58.3,33.5,39.4,> 100,45.7
CCOc1ccccc1/C=N\N=C(N/N=C/c1ccccc1OCC)N/N=C/c1ccccc1OCC,3.76,> 100,1.8,> 100,2.77,> 100,0.532,6.79,2.2,> 100,2.81,> 100,1.53,> 100 µM,> 100,> 100,1.17,,,0.826
CCOC(=O)NC(=O)c1cn(CCSCCOC(=O)NCCCCCCNC(=O)OCCSCCn2cc(C(=O)NC(=O)OCC)c(=O)n(C)c2=O)c(=O)n(C)c1=O,,,,> 100,,> 100,,> 100,,> 100,,> 100,,40.3 µM,> 100,,,,,
O=CCCn1[nH]c(=O)ccc1=O,,> 100,,> 100,,> 100,,> 100,,> 100,,> 100,,> 100 µM,> 100,> 100,,,,
Cc1ccc(/C(=N/NS(=O)(=O)c2cc(C)c(Cl)cc2Cl)Sc2cc(Cl)c(C)cc2S(N)(=O)=O)cc1,70.1,> 100,> 100,> 100,> 100,> 100,59,> 100,> 100,> 100,> 100,> 100,> 100,> 100 µM,,> 100,> 100,> 100,> 100,
COc1ccc2c(n1)Sc1nc3ccccc3nc1N2,,> 100,,> 100,,> 100,,> 100,,> 100,,80.1,,52.7 µM,,> 100,,,> 100,
O=S1Nc2cccc(C(F)(F)F)c2S1 (stereo unspecified),,> 100,,74.1,,> 100,,> 100,,82.8,,> 100,,> 100 µM,64.4,> 100,,,,
Cc1[nH]c2ccccc2c1CO,18.6,61.4,,,18.6,46,5.54,19.6,7.33,39.3,21,67.1,21.2,43.9 µM,47.2,82.6,21.4,29.3,> 100,21.2
COc1ccc(C2(Cl)C(Cl)(C(F)(F)F)C2(Cl)C(F)(F)F)cc1 (stereo unspecified),,> 100,,20.5,,27.8,,28.8,,28,,32,,28.2 µM,29.8,30,,,,
O/N=C1/CCCC/C1=C\c1ccc(Cl)c(Cl)c1,,> 100,,42.9,,> 100,,49.7,,60.1,,> 100,,38.9 µM,75.3,59.3,,,,
